Patent publication US20080194585A1, “Fungicidal Pyrazine Derivatives” (priority 2005, published 2008)
Marks after values point to notes of the source that are not given here.

Experiments:
[1] = system: Colletotrichum orbiculare; test: Test B: cucumber Colletotrichum anthracnose, preventive spray on cucumber seedlings
Rhizoctonia oryzae = test: Test G: turf brown patch, preventive spray on creeping bent grass seedlings
Description: (the causal agent of turf brown patch) and incubated in a saturated atmosphere at 27° C. for 24 h, and then moved to a growth chamber at 27° C. for 5 days, after which disease ratings were made.

Botrytis cinerea = test: Test E: tomato botrytis, preventive spray on tomato seedlings
Pythium aphanidermatum = test: Test A: bluegrass pythium blight, preventive spray on bluegrass seedlings; settings: 200 ppm
[2] = system: Erysiphe graminis f. sp. tritici; test: Test L: wheat powdery mildew, preventive spray on wheat seedlings
Plasmopara viticola = test: Test D: grape downy mildew, spray after inoculation of grape seedlings; type: in vivo; settings: 200 ppm
Text: Upon removal, disease ratings were made. […] A dash (-) indicates no test results.

Sclerotinia sclerotiorum = test: Test C: cucumber white mold, preventive spray on cucumber seedlings
Septoria nodorum = test: Test H: wheat glum blotch, preventive spray on wheat seedlings
Description: (the causal agent of wheat glum blotch) and incubated in a saturated atmosphere at 20° C. for 48 h, and then moved to a growth chamber at 22° C. for 5 days, after which disease ratings were made.

fusarium graminearium = test: Test I: wheat head scab, preventive spray on wheat seedlings; settings: 200 ppm
Description: (the causal agent of wheat head scab) and incubated in a saturated atmosphere at 20° C. for 72 h, and then moved to a growth chamber at 22° C. for 5 days, after which disease ratings were made.

Septoria tritici = test: Test J: wheat leaf blotch, preventive spray on wheat seedlings; type: in vivo
Text: A dash (-) indicates no test results.

Phytophthora infestans = test: whole plant or invertebrate; type: in vivo; settings: 200 ppm
[3] = system: Puccinia recondita f. sp. tritici; test: Test K: wheat leaf rust, preventive spray on wheat seedlings

CC(C)Cn1c(-c2c(Cl)cccc2Cl)c(Cl)nc(-n2cccn2)c1=O [compound 43]
Test B disease control rating ([1]; 200 ppm): 99% | Test G disease control rating (Rhizoctonia oryzae; 200 ppm): 92% | Test E disease control rating (Botrytis cinerea; 200 ppm): 100% | Test A disease control rating (Pythium aphanidermatum): 0% | Test L disease control rating ([2]; 200 ppm): 96% | Test D disease control rating (Plasmopara viticola): 0% | Test C disease control rating (Sclerotinia sclerotiorum; 200 ppm): 94% | Test H disease control rating (Septoria nodorum; 200 ppm): 100% | Test I disease control rating (fusarium graminearium): 0% | Test J disease control rating (Septoria tritici; 40 ppm (*)): 100* % | Test F disease control rating (Phytophthora infestans): 0% | Test K disease control rating ([3]; 200 ppm): 100%

CC(C)Cn1c(-c2ccc(Cl)cc2F)c(Cl)nc(-n2cccn2)c1=O [compound 45]
Test B disease control rating ([1]; 200 ppm): 100% | Test G disease control rating (Rhizoctonia oryzae; 200 ppm): 26% | Test E disease control rating (Botrytis cinerea; 200 ppm): 100% | Test A disease control rating (Pythium aphanidermatum): 0% | Test L disease control rating ([2]; 200 ppm): 85% | Test D disease control rating (Plasmopara viticola): 0% | Test C disease control rating (Sclerotinia sclerotiorum; 200 ppm): 85% | Test H disease control rating (Septoria nodorum; 200 ppm): 100% | Test I disease control rating (fusarium graminearium): 82% | Test J disease control rating (Septoria tritici; 40 ppm (*)): 100* % | Test F disease control rating (Phytophthora infestans): 0% | Test K disease control rating ([3]; 200 ppm): 100%

O=c1c(-n2cccn2)nc(Cl)c(-c2c(F)cccc2F)n1C1CCCCC1 [compound 47]
Test B disease control rating ([1]; 200 ppm): 54% | Test G disease control rating (Rhizoctonia oryzae; 200 ppm): 92% | Test E disease control rating (Botrytis cinerea; 200 ppm): 100% | Test A disease control rating (Pythium aphanidermatum): 74% | Test L disease control rating ([2]; 200 ppm): 99% | Test D disease control rating (Plasmopara viticola): 0% | Test C disease control rating (Sclerotinia sclerotiorum; 200 ppm): 0% | Test H disease control rating (Septoria nodorum; 200 ppm): 99% | Test I disease control rating (fusarium graminearium): 78% | Test J disease control rating (Septoria tritici; 200 ppm): 100% | Test F disease control rating (Phytophthora infestans): 0% | Test K disease control rating ([3]; 200 ppm): 95%

CC(C)Cn1c(-c2cccc(F)c2F)c(Cl)nc(-n2cccn2)c1=O [compound 50]
Test B disease control rating ([1]; 200 ppm): 0% | Test G disease control rating (Rhizoctonia oryzae; 200 ppm): 95% | Test E disease control rating (Botrytis cinerea; 200 ppm): 100% | Test A disease control rating (Pythium aphanidermatum): 0% | Test L disease control rating ([2]; 200 ppm): 94% | Test D disease control rating (Plasmopara viticola): 0% | Test C disease control rating (Sclerotinia sclerotiorum; 200 ppm): 98% | Test H disease control rating (Septoria nodorum; 200 ppm): 100% | Test I disease control rating (fusarium graminearium): 0% | Test J disease control rating (Septoria tritici; 40 ppm (*)): 100* % | Test F disease control rating (Phytophthora infestans): 0% | Test K disease control rating ([3]; 200 ppm): 100%

CC(C)Cn1c(-c2cc(F)ccc2F)c(Cl)nc(-n2cccn2)c1=O [compound 56]
Test B disease control rating ([1]; 200 ppm): 99% | Test G disease control rating (Rhizoctonia oryzae; 200 ppm): 92% | Test E disease control rating (Botrytis cinerea; 200 ppm): 100% | Test A disease control rating (Pythium aphanidermatum): 0% | Test L disease control rating ([2]; 200 ppm): 99% | Test D disease control rating (Plasmopara viticola): 29% | Test C disease control rating (Sclerotinia sclerotiorum; 200 ppm): 99% | Test H disease control rating (Septoria nodorum; 200 ppm): 100% | Test I disease control rating (fusarium graminearium): 60% | Test J disease control rating (Septoria tritici; 40 ppm (*)): 100* % | Test F disease control rating (Phytophthora infestans): 0% | Test K disease control rating ([3]; 200 ppm): 99%

CC(C)Cn1c(-c2c(F)ccc(F)c2F)c(Cl)nc(-n2cccn2)c1=O [compound 57]
Test B disease control rating ([1]; 200 ppm): 100% | Test G disease control rating (Rhizoctonia oryzae; 200 ppm): 98% | Test E disease control rating (Botrytis cinerea; 200 ppm): 100% | Test A disease control rating (Pythium aphanidermatum): 0% | Test L disease control rating ([2]; 200 ppm): 100% | Test D disease control rating (Plasmopara viticola): 32% | Test C disease control rating (Sclerotinia sclerotiorum; 200 ppm): 98% | Test H disease control rating (Septoria nodorum; 200 ppm): 100% | Test I disease control rating (fusarium graminearium): 0% | Test J disease control rating (Septoria tritici; 40 ppm (*)): 99* % | Test F disease control rating (Phytophthora infestans): 0% | Test K disease control rating ([3]; 200 ppm): 100%

CCC(C)Cn1c(-c2c(F)cccc2F)c(Cl)nc(-n2ccc(C)n2)c1=O (stereo not drawn) [compound 66]
Test B disease control rating ([1]; 40 ppm (*)): 62* % | Test G disease control rating (Rhizoctonia oryzae; 40 ppm (*)): 95* % | Test E disease control rating (Botrytis cinerea; 40 ppm (*)): 100* % | Test A disease control rating (Pythium aphanidermatum): 0% | Test L disease control rating ([2]; 40 ppm (*)): 99* % | Test D disease control rating (Plasmopara viticola): 0% | Test C disease control rating (Sclerotinia sclerotiorum; 40 ppm (*)): 0* % | Test H disease control rating (Septoria nodorum; 40 ppm (*)): 89* % | Test I disease control rating (fusarium graminearium): 0% | Test J disease control rating (Septoria tritici; 40 ppm (*)): 100* % | Test F disease control rating (Phytophthora infestans): 0% | Test K disease control rating ([3]; 40 ppm (*)): 97* %
